Values joined by “and” are separate entries in the source; they are usually repeats but may differ in a detail not shown here. Equal values may be shown once.
Assay: molar heat capacity at constant volume
Conditions: Fluid (supercritical or subcritical phases), Vacuum adiabatic calorimetry

CC(C)C [2-methylpropane]
Conditions	molar heat capacity at constant volume
415.15 K, 4254 kPa	222.08 J/K/mol and 230.8 J/K/mol
420.15 K, 4664 kPa	202.67 J/K/mol
420.15 K, 4665 kPa	202.96 J/K/mol
425.15 K, 5082 kPa	186.05 J/K/mol
425.15 K, 5083 kPa	187.1 J/K/mol

CCC [propane]
Conditions	molar heat capacity at constant volume [J/K/mol]
270.15 K, 4427 kPa	71.74
275.15 K, 7953 kPa	71.26
280.15 K, 11458 kPa	71.3
285.15 K, 14939 kPa	72.63
290.15 K, 18398 kPa	73.46
295.15 K, 21836 kPa	74.57
300.15 K, 25251 kPa	74.61
305.15 K, 28640 kPa	74.35
310.15 K, 6561 kPa	74.57
315.15 K, 9049 kPa	75.23
320.15 K, 11532 kPa	76.15
325.15 K, 3660 kPa	77.96
325.15 K, 14008 kPa	76.37
330.15 K, 5594 kPa	78.75
330.15 K, 16475 kPa	76.64
335.15 K, 7530 kPa	78.31
335.15 K, 18934 kPa	76.9
340.15 K, 9468 kPa	77.7
340.15 K, 21386 kPa	77.21
345.15 K, 11404 kPa	77.26
345.15 K, 23827 kPa	76.33
350.15 K, 13339 kPa	79.46
350.15 K, 26253 kPa	77.52
355.15 K, 15273 kPa	77.39
355.15 K, 28668 kPa	77.43
360.15 K, 17203 kPa	77.74
365.15 K, 19126 kPa	78.62
370.15 K, 21044 kPa	79.15
375.15 K, 5095 kPa	98.6
380.15 K, 5744 kPa	93.04
385.15 K, 6404 kPa	89.6
390.15 K, 7072 kPa	86.07
395.15 K, 7746 kPa	84.84
400.15 K, 8425 kPa	80.43
405.15 K, 9109 kPa	78.84
410.15 K, 9795 kPa	79.99
420.15 K, 11176 kPa	79.81
425.15 K, 11869 kPa	81.75

Reference: the NIST ThermoML archive (doi:10.1007/s10765-005-8592-5)
